Two molecules from patent US5958947A, “DNA-affinic hypoxia selective cytotoxins” (priority 1996, dated 1999) can be followed below.

The pIC50 is the IC50 on a negative log10 scale, so that one unit is a factor of ten. The low end stands for a high IC50, the high end for a low IC50. Broadly, the solubility is how much of the substance goes into solution per volume. A higher solubility goes with much dissolved substance.

For data set [1], the system named is V79 cells. The data set is described as follows: Isoeffective to the oxygen dose (IsD). The data set is classed as cell-based, Chinese hamster. The note with it: Cricetulus griseus; for EC (isoeffective to oxygen at 7.5 Gy): read-out: Isoeffective to the oxygen dose at 7.5 Gy: IsD(7.5); for EC (isoeffective to oxygen at 20 Gy): read-out: Isoeffective to the oxygen dose at 20 Gy: IsD. An excerpt: The survival fraction under hypoxic conditions (plotted versus compound concentration) meets the aerobic survival fraction (radiation toxicity) at the IsD. The IsD value is a useful indicator of the overall potency of a compound as a sensitizer and cytotoxin of hypoxic cells. IsD is especially useful when comparing different compounds for hypoxic cytotoxicity and radiosensitizing efficacy.
FIGS. 5 and 6 illustrate the IsD at 7.5 Gy (FIG. 5A) and 20 Gy (FIG. 5B). FIGS. 5A and 6A include a comparison to the prior art NLA-1 compound. V79 cells were irradiated at 7.5 Gy or 20 Gy after a 1 hour exposure under hypoxia (symbols) or air (straight line), at various drug concentrations. No toxicity or radiosensitization for any tested compound was observed under aerobic conditions over the tested concentration ranges. IsD values were calculated from the intersections of the survival fractions of the hypoxic curves with the survival fraction in air. All data points in FIGS. 5 and 6 represent the mean of two replicate experiments.

A short description of data set [2]: Partition coefficient in octanol/water. The data set is classed as physicochemical. How it is done:
The partition coefficient of the hypoxia selective cytotoxins of the present invention were determined by the method of T. Fujita et al., J. Am. Chem. Soc., 86, 5175-5180 (1964), incorporated herein by reference.

The target of the next data set is T1, calf thymus Topo I (Bos taurus, UniProt F1MN93).
T1 construct: purchased TopoGEN, Inc., Columbus, Ohio; host or cells: calf thymus
T1 sequence (F1MN93 1-767): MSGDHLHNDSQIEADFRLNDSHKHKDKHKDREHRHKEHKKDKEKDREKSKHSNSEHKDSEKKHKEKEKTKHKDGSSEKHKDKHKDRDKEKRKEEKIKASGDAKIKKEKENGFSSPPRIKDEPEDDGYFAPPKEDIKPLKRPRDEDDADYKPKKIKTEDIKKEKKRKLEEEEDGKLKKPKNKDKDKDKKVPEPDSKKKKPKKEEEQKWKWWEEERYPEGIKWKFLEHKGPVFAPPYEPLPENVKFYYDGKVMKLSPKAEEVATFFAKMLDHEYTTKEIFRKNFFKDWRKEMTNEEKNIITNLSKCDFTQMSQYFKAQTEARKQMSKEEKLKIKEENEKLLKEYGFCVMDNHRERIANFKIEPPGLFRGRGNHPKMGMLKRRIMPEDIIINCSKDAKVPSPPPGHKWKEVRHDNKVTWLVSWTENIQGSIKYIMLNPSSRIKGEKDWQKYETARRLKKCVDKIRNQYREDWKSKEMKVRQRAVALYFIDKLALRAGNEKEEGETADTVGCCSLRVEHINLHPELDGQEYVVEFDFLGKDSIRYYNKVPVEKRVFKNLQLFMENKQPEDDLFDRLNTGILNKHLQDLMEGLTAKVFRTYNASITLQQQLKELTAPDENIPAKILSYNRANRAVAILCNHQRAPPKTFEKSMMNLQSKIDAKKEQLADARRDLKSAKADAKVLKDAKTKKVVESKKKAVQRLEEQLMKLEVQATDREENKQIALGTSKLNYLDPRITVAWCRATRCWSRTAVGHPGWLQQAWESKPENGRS
The data set is described as follows: Topoisomerase I interaction (relaxation of supercoiled DNA). The data set is classed as biochemical. The note with it: for IC100: 0.5 h; for pIC50: Topo I inhibition (50%)-dose, Topo I-induced relaxation of supercoiled DNA. How it is done:
In particular, a Topo I drug screening kit (TopoGEN, Inc., Columbus, Ohio) was used to assay the topoisomerase I THNLA-1 interaction. […] Camptothecin is a Topoisomerase I poison used as an anticancer drug. Camptothecin stabilizes the Topo I-DNA cleavable complex, and therefore prevents the resealing of DNA by Topo-I.
Individual reaction mixtures were heated for 30 minutes at 37° C. on a heating block, and then 2 μl of 10% SDS - proteinase K solution was added to each reaction mixture. The resulting reaction mixtures then were heated for an additional 30 minutes at 37° C. The reaction mixtures in a loading buffer were extracted with CHCl3 prior to submarine electrophoresis on a 1% agarose gel. The DNA bands were observed visually by staining with ethidium bromide (0.5 μg/ml).

Another data set concerns supercoiled DNA. The data set is described as follows: DNA intercalation by agarose gel electrophoresis (mobility of supercoiled DNA). The data set is classed as binding. The note with it: electrophoretic gel, up to millimolar concentrations. The text has this: An agarose gel electrophoresis technique was used to determine whether THNLA-1 intercalates DNA. Compounds that strongly intercalate DNA retard DNA mobility during agarose gel electrophoresis due to unwinding and extension of the dsDNA.

Data set [3] relates to V79 cells. The data set is described as follows: Chemosensitization to L-PAM or cis-DDP in V79 cells. In kind it is cell-based, Chinese hamster. The note with it: for chemosensitization to L-PAM or cis-DDP: V79 cells. How it is done: L-PAM, also known as phenylalanine mustard and available from Sigma Chem. Co., St. Louis, Mo., first was dissolved in an ethanolic solution of HCl (0.5N). The ethanolic HCl solution was buffered with propylene glycol in a 1:9 ratio of ethanolic HCl solution to propylene glycol, and finally diluted 100 fold with suspension medium. cis-DDP, a platinum-based chemotherapeutic agent available from Sigma Chem. Co., St. Louis, Mo., was dissolved in water to a predetermined concentration.
Experiments using a simultaneous addition of the sensitizer and chemotherapeutic agent for 1 hour at 37° C. under aerobic conditions were also performed.
In all experiments, controls for the hypoxic cytotoxicity of the sensitizer and the toxicity of the chemotherapeutic alone were included. Survival curves were normalized for the hypoxic cytotoxicity of sensitizer in order to determine the dose modification factor (DMF), i.e., the ratio of chemotherapeutic agent concentrations required to reduce cell survival to a predetermined level (e.g., 0.5) alone or in combination with a sensitizer. Synergism between the chemotherapeutic agent and the chemosensitizer was determined using the fractional product concept which is applied in instances of independent action of drugs, or by isobologramic analysis. The results of the chemosensitization studies are illustrated in FIGS. 12-15.

Each structure is given as a SMILES string. pIC50: −log10 of the molar value. Where “and” joins values, the source holds several entries; their conditions need not be identical. Identical values can stand only once. Entries after “also recorded” stand apart in the source; their conditions may differ. Counter-ions that a name gives are not always drawn. Like-named read-outs stand apart in the source and are kept apart here.

`O=[N+]([O-])c1nccn1CCCNc1c2c(nc3ccccc13)CCSC2` [S-THNLA-1, 10-[3-(2-nitroimidazolyl)propylamino]-3,4-dihydro-1-H-thiopyrano[4,3-b]quinoline hydrochloride]: in the data set on V79 cells [1] (V79, 1 h), the EC (isoeffective to oxygen at 7.5 Gy) was determined as 60 µM and the EC (isoeffective to oxygen at 20 Gy) was approximately 103 µM. Besides, the “Partition coefficient in octanol/water: PCo/w” value in data set [2] (hydrochloride) is 0.41 and 0.40. Moreover, on calf thymus Topo I (read-out: concentration for complete inhibition of Topo I), the IC100 was approximately 800 µM. Further, the pIC50 at calf thymus Topo I is approximately 3.10. Also, the “formation of nicked DNA with Topo I” value on calf thymus Topo I (in Topo I test) is reported as “some nicked DNA also was observed”. Moreover, the “effect on mobility of supercoiled DNA” value with supercoiled DNA is on record as “do not affect the mobility of supercoiled DNA”. Also, in the data set with V79 cells [3], the “chemosensitization to L-PAM or cis-DDP” value is recorded as “strong chemosensitizers”. The same molecule yielded a solubility in “Water solubility” of approximately 9.5 mM.

In the case of `Cl.O=[N+]([O-])c1nccn1CCCNc1c2c(nc3ccccc13)CCCC2` [THNLA-1, 9-[3-(2-nitro-1-imidazolyl)propylamino]-1,2,3,4-tetrahydroacridine hydrochloride], in the data set on V79 cells [1] (V79, 1 h, 7.5 Gy, 1 hour at 37° C.), the EC (isoeffective to oxygen at 7.5 Gy) was approximately 40 µM. Besides, the EC (isoeffective to oxygen at 20 Gy) in the data set on V79 cells [1] (V79, 20 Gy, 1 hour at 37° C.) was approximately 78 µM. For the same molecule, the “Partition coefficient in octanol/water: PCo/w” value in data set [2] was 0.14. For the same molecule, the logP in data set [2] (read-out: Partition coefficient in octanol/water: PCo/w (converted)) was -0.854. Also, at calf thymus Topo I, the “Topo I-dependent single-stranded DNA cleavage” value is given as “not observed”; the pIC50 is ~3.22 and 3.22. For the same molecule, the IC100 on calf thymus Topo I (read-out: complete inhibition of Topo I not observed up to) is more than 1000 µM. Besides, the “inhibition of Topo I-induced relaxation” value on calf thymus Topo I (supercoiled DNA) is “inhibits Topo I-induced relaxation of supercoiled DNA, but at significantly higher concentrations than NLA-type compounds”. The “concentration at which inhibition of Topo I starts” value on calf thymus Topo I (supercoiled DNA relaxation) worked out at 100 µM. Further, the “effect on mobility of supercoiled DNA” value in the data set with supercoiled DNA was “do not affect the mobility of supercoiled DNA”. For the same molecule, the “DMF value of L-PAM at 0.5 survival fraction” value with V79 cells [3] (10 μM THNLA-1, 2 hours hypoxic pretreatment, then L-PAM 1 hour aerobic) was determined as 3.2. Further, the “DMF value of cis-DDP at 0.5 survival fraction” value in the data set on V79 cells [3] (15 μM THNLA-1, 2 hours hypoxic pretreatment, then cis-DDP 1 hour aerobic) is 4.2. Besides, the “chemosensitization to L-PAM or cis-DDP” value in the data set on V79 cells [3] (hydrochloride) is “powerful potentiator of chemotherapeutic agent toxicity; also recorded: strong chemosensitizers”. The “potentiation of L-PAM or cis-DDP under aerobic conditions” value in the data set with V79 cells [3] (aerobic exposure) is “no potentiation occurred”. Further, the “DMF compared with NLA-1” value in the data set on V79 cells [3] (cis-DDP or L-PAM combination, about 30% of the IC50/H,1h, hydrochloride) is “slightly greater than the DMF value obtained using a combination including NLA-1; also recorded: significantly more efficacious chemosensitizer than NLA-1”. The “interaction with L-PAM or cis-DDP” value with V79 cells [3] (hypoxic pretreatment, isobologram and fractional product concept, hydrochloride) was “synergistic interaction; also recorded: dramatic decrease in survival fraction; also recorded: unexpected synergistic effect”. For the same molecule, in “Water solubility”, the solubility was approximately 12 mM.
